Measurements from US20040014779A1, “Methods and compositions related to IRM compounds and toll-like recptor pathways” (3M Innovative Properties Company, priority 2001, published 2004).

Molecular target: T1, TLR7 (Mus musculus, UniProt P58681)
T1 construct: expressed in transfected cells; host or cells: RAW 264.7 (pIRES vector)
T1 sequence (P58681 27-1050): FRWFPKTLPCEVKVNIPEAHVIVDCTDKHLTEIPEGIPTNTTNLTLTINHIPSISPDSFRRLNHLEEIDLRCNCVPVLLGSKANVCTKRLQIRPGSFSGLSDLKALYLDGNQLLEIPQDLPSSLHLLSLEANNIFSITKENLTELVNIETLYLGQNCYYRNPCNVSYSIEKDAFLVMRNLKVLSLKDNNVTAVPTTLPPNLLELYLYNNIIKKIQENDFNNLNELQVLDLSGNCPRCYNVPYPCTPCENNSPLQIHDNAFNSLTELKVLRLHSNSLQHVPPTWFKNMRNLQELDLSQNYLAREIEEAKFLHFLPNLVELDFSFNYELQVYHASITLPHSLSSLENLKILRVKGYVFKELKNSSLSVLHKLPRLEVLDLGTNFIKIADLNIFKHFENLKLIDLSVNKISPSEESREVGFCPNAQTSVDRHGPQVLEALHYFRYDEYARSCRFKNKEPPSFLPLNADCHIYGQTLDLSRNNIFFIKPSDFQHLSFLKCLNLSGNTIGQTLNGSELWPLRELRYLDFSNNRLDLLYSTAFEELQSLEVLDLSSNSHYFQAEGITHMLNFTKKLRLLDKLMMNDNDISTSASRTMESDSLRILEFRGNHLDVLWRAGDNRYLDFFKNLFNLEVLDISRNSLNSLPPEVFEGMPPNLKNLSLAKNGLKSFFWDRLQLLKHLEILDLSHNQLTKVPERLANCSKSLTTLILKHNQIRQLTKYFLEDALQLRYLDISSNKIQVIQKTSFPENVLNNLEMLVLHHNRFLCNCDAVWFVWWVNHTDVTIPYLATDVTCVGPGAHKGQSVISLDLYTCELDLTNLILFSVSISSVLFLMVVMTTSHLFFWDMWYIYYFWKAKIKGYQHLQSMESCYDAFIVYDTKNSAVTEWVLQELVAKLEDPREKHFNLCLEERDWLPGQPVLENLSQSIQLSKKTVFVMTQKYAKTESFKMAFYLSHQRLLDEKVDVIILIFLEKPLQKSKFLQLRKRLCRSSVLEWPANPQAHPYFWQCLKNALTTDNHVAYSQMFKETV
Test: IRM-stimulated TNF-α production by RAW 264.7 cells overexpressing TLR7
Format: cell-based, murine
Text: The murine TLR wild-type vectors were generated by PCR amplification from RAW 264.7 cell cDNA with TLR6 specific primers (sense primer: SEQ ID NO 13; antisense primer: SEQ ID NO 14) or TLR7 specific primers (sense primer: SEQ ID NO 15; antisense primer: SEQ ID NO 16) by Pfu Turbo DNA polymerase kit (Stratagene, La Jolla, Calif.). The PCR products were inserted into pCR-Blunt II-TOPO for sequence verification and then subcloned into pIRES (BD Biosciences Clontech, Palo Alto, Calif.) for expression in mammalian cells.
THP-1 cells or RAW 264.7 cells were cultured and transfected with the wild type TLR 6 or wild type TLR 7 plasmids described above. The transfections were performed as in Example 1 with a 4:1 ratio of wild-type TLR to H2K plasmid (THP-1 cells) or CD4 (RAW 264.7 cells).
RAW 264.7 cells were stimulated with various concentrations of resiquimod and analyzed as described in Example 1. Results are provided in Table 4 and are expressed as fold increase in TNF-α production as compared to control transfected RAW 264.7 cells.

Q: How did the “Fold increase in TNF-α production over control, TLR7” value (“Fold increase in TNF-α production” below) (RAW 264.7 overexpressing TLR7, 0.0004 μM) turn out when `CCOCc1nc2c(N)nc3ccccc3c2n1CC(C)(C)O` [Resiquimod, 4-amino-2-ethoxymethyl-α,α-dimethyl-1H-imidazo[4,5-c]quinoline-1-ethanol] was run?
A: The value was 14.8 fold.

Q: What about the “Fold increase in TNF-α production” value (RAW 264.7 overexpressing TLR7, 0.001 μM) of the same molecule?
A: Its value is 8.9 fold.

Q: And the “Fold increase in TNF-α production” value (RAW 264.7 overexpressing TLR7, 0.004 μM)?
A: The value was 5.8 fold.

Q: And the “Fold increase in TNF-α production” value (RAW 264.7 overexpressing TLR7, 0.012 μM)?
A: The value was 3.8 fold.

Q: And the “Fold increase in TNF-α production” value (RAW 264.7 overexpressing TLR7, 0.037 μM)?
A: The value was 3.5 fold.

Q: And the “Fold increase in TNF-α production” value (RAW 264.7 overexpressing TLR7, 1 μM)?
A: The value was 1.3 fold.

Q: And the “Fold increase in TNF-α production” value (RAW 264.7 overexpressing TLR7, 3 μM)?
A: The value was 1.0 fold.

Q: What about the “Fold increase in TNF-α production” value (RAW 264.7 overexpressing TLR7, 10 μM) of the same molecule?
A: The value was 1.5 fold.

Q: And the “TLR7 agonist character (in words)” value (from TLR7 overexpression in RAW 264.7 cells)?
A: The value was “agonist”.
